Assay results reported in US20100286128A1 (priority 2007, published 2010).
Where a name gives a salt, the structure may show the parent alone.

Target: α7-subtype of nicotinic receptors (Rattus norvegicus, UniProt Q05941)
Experiment: biochemical
Format: binding

Chain of α7-subtype of nicotinic receptors (Q05941 23-502): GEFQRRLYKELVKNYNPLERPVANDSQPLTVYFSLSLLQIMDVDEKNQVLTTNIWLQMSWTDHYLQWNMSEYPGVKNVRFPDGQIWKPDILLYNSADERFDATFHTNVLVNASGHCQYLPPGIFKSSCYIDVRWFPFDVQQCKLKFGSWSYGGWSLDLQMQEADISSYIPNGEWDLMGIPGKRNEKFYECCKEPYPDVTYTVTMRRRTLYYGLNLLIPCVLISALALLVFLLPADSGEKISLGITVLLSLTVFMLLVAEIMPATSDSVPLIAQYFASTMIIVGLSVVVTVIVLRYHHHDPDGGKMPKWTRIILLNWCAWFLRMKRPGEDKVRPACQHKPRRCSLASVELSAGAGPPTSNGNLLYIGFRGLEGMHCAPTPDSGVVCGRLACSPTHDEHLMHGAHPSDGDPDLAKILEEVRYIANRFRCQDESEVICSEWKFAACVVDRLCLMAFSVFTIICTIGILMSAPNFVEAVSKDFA

`c1csc(-c2cnc(N3CCN4CCC3CC4)nc2)c1` [Compound A1, 4-(5-Thiophen-2-yl-pyrimidin-2-yl)-1,4-diaza-bicyclo[3.2.2]nonane hydrochloric acid salt] showed an IC50 of under 100 nM.
